This passage reports EC50, Emax and Efficiency results from patent US20190367516A1 (Bayer Pharma Aktiengesellschaft, priority 2015, published 2019).

pEC50: −log10 of the molar value. Read-outs that look alike come from different tables or passages of the source.

This assay concerns the target T1, human M2 receptor (Homo sapiens, UniProt P08172).
T1 sequence (P08172 1-466): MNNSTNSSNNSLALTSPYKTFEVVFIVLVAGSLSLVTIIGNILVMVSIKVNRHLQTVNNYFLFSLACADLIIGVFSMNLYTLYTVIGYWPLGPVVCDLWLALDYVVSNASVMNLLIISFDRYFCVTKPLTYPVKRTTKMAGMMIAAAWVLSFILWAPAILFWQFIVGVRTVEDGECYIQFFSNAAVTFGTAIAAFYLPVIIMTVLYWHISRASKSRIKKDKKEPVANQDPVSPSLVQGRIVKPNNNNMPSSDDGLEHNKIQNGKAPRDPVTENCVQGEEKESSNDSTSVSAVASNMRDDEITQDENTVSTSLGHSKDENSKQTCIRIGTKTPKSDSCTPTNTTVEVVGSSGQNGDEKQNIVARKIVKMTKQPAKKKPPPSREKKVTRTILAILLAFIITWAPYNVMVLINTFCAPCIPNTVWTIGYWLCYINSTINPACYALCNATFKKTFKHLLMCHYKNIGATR
The following applies: for Emax: read-out: Efficiency, boosting of the acetylcholine effect at EC20 acetylcholine concentration; for Efficiency: boosting of the acetylcholine effect at EC20 acetylcholine concentration.

Where [1] appears, read: Receptor activity EC50, M2-GIRK1/4 activation test, acetylcholine at EC20, allosteric potency, in some cases mean values from two or more determinations.
The mark [2] stands for this setting: Receptor activity EC50, allosteric potency at EC20 acetylcholine, M2-GIRK1/4 reporter cells, in some cases mean of two or more determinations.

Broadly, the pEC50 is the EC50 on a negative log10 scale, so that one unit is a factor of ten. Low values mean a large EC50, high ones a small EC50. `O=C(NC(c1c(F)cccc1F)C(F)(F)F)c1cn(-c2ccc(F)cc2F)c2nc(N3CCCC(O)C3=O)ccc2c1=O` (single isomer, unassigned) [Example 251, 1-(2,4-Difluorophenyl)-N-[1-(2,6-difluorophenyl)-2,2,2-trifluoroethyl]-7-[3-hydroxy-2-oxopiperidin-1-yl]-4-oxo-1,4-dihydro-1,8-naphthyridine-3-carboxamide]: under setting [1], the pEC50 was 6.79.
`C[C@@H](NC(=O)c1cn(-c2c(F)cc(F)cc2F)c2nc(N3C[C@@H](O)[C@H](O)C3)ccc2c1=O)C1CC1` [Example 470, N-[(1R)-1-Cyclopropylethyl]-7-[(3R,4R)-3,4-dihydroxypyrrolidin-1-yl]-4-oxo-1-(2,4,6-trifluorophenyl)-1,4-dihydro-1,8-naphthyridine-3-carboxamide]: the pEC50 under setting [2] was 6.98. Besides, under “M2-GIRK1/4 reporter cells”, the Emax came out at 98.5%.
`CC[C@@H](NC(=O)c1cn(-c2ccc(F)cc2F)c2nc(N3CC4CNC(=O)C4C3)ccc2c1=O)C(F)(F)F` (single isomer, unassigned) [Example 222] had a pEC50 under setting [1] of 6.70.
Under setting [2], `O=C(NC1(CC(F)(F)F)CC1)c1cn(-c2c(F)cc(F)cc2F)c2nc(N3C[C@@H](O)CC3=O)ccc2c1=O` [Example 632, 7-[(4S)-4-Hydroxy-2-oxopyrrolidin-1-yl]-4-oxo-N-[1-(2,2,2-trifluoroethyl)cyclopropyl]-1-(2,4,6-trifluorophenyl)-1,4-dihydro-1,8-naphthyridine-3-carboxamide] showed a pEC50 of 7.31. In addition, the Emax (M2-GIRK1/4 reporter cells) was determined as 100%.
`CC[C@@H](NC(=O)c1cn(-c2c(Cl)cc(F)cc2Cl)c2nc(N3CCNC3=O)ccc2c1=O)C(F)(F)F` [Example 649, 1-(2,6-Dichloro-4-fluorophenyl)-4-oxo-7-(2-oxoimidazolidin-1-yl)-N-[(2R)-1,1,1-trifluorobutan-2-yl]-1,4-dihydro-1,8-naphthyridine-3-carboxamide] gave a pEC50 under setting [2] of 7.08. For the same compound, the Emax (M2-GIRK1/4 reporter cells) came to 94%.
For `CN(CC(F)F)c1ccc2c(=O)c(C(=O)NC34CC5CC(CC(C5)C3)C4)cn(-c3ccc(F)cc3F)c2n1` [Example 112, 7-[(2,2-Difluoroethyl)(methyl)amino]-1-(2,4-difluorophenyl)-4-oxo-N-(tricyclo[3.3.1.1^3,7]dec-1-yl)-1,4-dihydro-1,8-naphthyridine-3-carboxamide], the pEC50 under setting [1] was 7.54.
With `CO[C@@H]1CN(c2ccc3c(=O)c(C(=O)N[C@@H](C4CC4)C(F)(F)F)cn(-c4c(F)cc(F)cc4F)c3n2)C[C@H]1O` (single isomer, unassigned) [Example 583], the pEC50 under setting [2] was 7.72. Moreover, where the note is “M2-GIRK1/4 reporter cells”, the Emax amounted to 100%.
Regarding `CCC(COC(F)(F)F)NC(=O)c1cn(-c2c(F)cc(F)cc2F)c2nc(N3C[C@@H](O)[C@H](O)C3)ccc2c1=O` (mixture of isomers) [Example 576, 7-[(3R,4R)-3,4-Dihydroxypyrrolidin-1-yl]-4-oxo-N-[1-(trifluoromethoxy)butan-2-yl]-1-(2,4,6-trifluorophenyl)-1,4-dihydro-1,8-naphthyridine-3-carboxamide], the pEC50 under setting [2] is 7.89. Further, the Emax (M2-GIRK1/4 reporter cells) was determined as 99.5%.
Turning to `O=C(NC(c1ccccc1Cl)C(F)(F)F)c1cn(-c2c(F)cc(F)cc2F)c2nc(N3CCNC3=O)ccc2c1=O` (racemic) [Example 565, N-[1-(2-Chlorophenyl)-2,2,2-trifluoroethyl]-4-oxo-7-(2-oxoimidazolidin-1-yl)-1-(2,4,6-trifluorophenyl)-1,4-dihydro-1,8-naphthyridine-3-carboxamide], the Efficiency (M2-GIRK1/4 reporter cells) came to 99.5%.
In the case of `O=C(NC(CC(F)(F)F)C(F)(F)F)c1cn(-c2c(F)cc(F)cc2F)c2nc(N3C[C@@H](O)CC3=O)ccc2c1=O` (single isomer, unassigned) [Example 608], under setting [2], the pEC50 was 7.66. This compound also gave an Efficiency (M2-GIRK1/4 reporter cells) of 100.0%.
`O=C(NC(c1ccccc1Cl)C(F)(F)F)c1cn(-c2c(F)cc(F)cc2F)c2nc(N3C[C@@H](O)CC3=O)ccc2c1=O` (single isomer, unassigned) [Example 534]: the pEC50 under setting [2] was 8.22. Moreover, under “M2-GIRK1/4 reporter cells”, the Efficiency is recorded as 100.0%.
With `CCC(COC(F)(F)F)NC(=O)c1cn(-c2c(F)cc(F)cc2F)c2nc(N3C[C@@H](C)NC3=O)ccc2c1=O` (mixture of isomers) [Example 453, 7-[(4R)-4-Methyl-2-oxoimidazolidin-1-yl]-4-oxo-N-[(2S)-1-(trifluoromethoxy)butan-2-yl]-1-(2,4,6-trifluorophenyl)-1,4-dihydro-1,8-naphthyridine-3-carboxamide], the negative logarithm of the EC50 (pEC50) under setting [2] was 7.96. For the same compound, the Emax (M2-GIRK1/4 reporter cells) amounted to 98.5%.
`O=C(NC(CC(F)(F)F)C(F)(F)F)c1cn(-c2c(F)cc(F)cc2F)c2nc(N3CCNC3=O)ccc2c1=O` (racemic) [Example 588, N-[1,1,1,4,4,4-Hexafluorobutan-2-yl]-4-oxo-7-(2-oxoimidazolidin-1-yl)-1-(2,4,6-trifluorophenyl)-1,4-dihydro-1,8-naphthyridine-3-carboxamide] gave a pEC50 under setting [2] of 8.05. This compound also yielded an Efficiency (M2-GIRK1/4 reporter cells) of 100.0%.
Consider `CC(C)CC(NC(=O)c1cn(-c2ccc(F)cc2F)c2nc(NCCF)ccc2c1=O)C(F)(F)F` (centres unmarked) [Example 88], for which the pEC50 under setting [1] is 7.38.
Under setting [2], `CC(C)C(NC(=O)c1cn(-c2c(F)cc(F)cc2F)c2nc(N3C[C@@H](O)[C@H](O)C3)ccc2c1=O)C(F)(F)F` (mixture of isomers) [Example 552, 7-[(3R,4R)-3,4-Dihydroxypyrrolidin-1-yl]-4-oxo-N-[1,1,1-trifluoro-3-methylbutan-2-yl]-1-(2,4,6-trifluorophenyl)-1,4-dihydro-1,8-naphthyridine-3-carboxamide] had a pEC50 of 7.85. In addition, the Emax (M2-GIRK1/4 reporter cells) amounted to 96%.
On to `O=C(NC1(C(F)(F)F)CCOC1)c1cn(-c2ccc(F)cc2F)c2nc(N3C[C@@H](O)CC3=O)ccc2c1=O` (mixture of isomers) [Example 238, 1-(2,4-Difluorophenyl)-7-[(4S)-4-hydroxy-2-oxopyrrolidin-1-yl]-4-oxo-N-[3-(trifluoromethyl)tetrahydrofuran-3-yl]-1,4-dihydro-1,8-naphthyridine-3-carboxamide], for which the pEC50 under setting [1] was 5.79.
Consider `CCC(NC(=O)c1cn(-c2c(F)cc(F)cc2F)c2nc(N3C[C@@H](O)CC3=O)ccc2c1=O)C(C)C` (single isomer, unassigned) [Example 485], for which, under setting [2], the pEC50 was 8.22. For the same compound, under “M2-GIRK1/4 reporter cells”, the Emax worked out at 100%.
Under setting [1], `CN(CCO)c1ccc2c(=O)c(C(=O)NC34CC5CC(CC(C5)C3)C4)cn(-c3ccc(F)cc3F)c2n1` [Example 82, 1-(2,4-Difluorophenyl)-7-[(2-hydroxyethyl)(methyl)amino]-4-oxo-N-(tricyclo[3.3.1.1^3,7]dec-1-yl)-1,4-dihydro-1,8-naphthyridine-3-carboxamide] showed a pEC50 of 7.22.
Compound `CC(COC(F)(F)F)NC(=O)c1cn(-c2ccc(F)cc2F)c2nc(N3CCCC3=O)ccc2c1=O` (racemic) [Example 230, rac-1-(2,4-Difluorophenyl)-4-oxo-7-(2-oxopyrrolidin-1-yl)-N-[1-(trifluoromethoxy)propan-2-yl]-1,4-dihydro-1,8-naphthyridine-3-carboxamide] gave a pEC50 under setting [1] of 6.69.
As to `CC(C)C(NC(=O)c1cn(-c2ccc(F)cc2F)c2nc(N(C)C)ccc2c1=O)C(F)(F)F` (racemic) [Example 150, rac-1-(2,4-Difluorophenyl)-7-(dimethylamino)-4-oxo-N-(1,1,1-trifluoro-3-methylbutan-2-yl)-1,4-dihydro-1,8-naphthyridine-3-carboxamide], the pEC50 under setting [1] was 7.14.
Under setting [1], `CC(C)(NC(=O)c1cn(-c2c(F)cc(F)cc2F)c2nc(N3CCCN(CCO)C3=O)ccc2c1=O)C(F)F` [Example 382, N-(1,1-Difluoro-2-methylpropan-2-yl)-7-[3-(2-hydroxyethyl)-2-oxotetrahydropyrimidin-1(2H)-yl]-4-oxo-1-(2,4,6-trifluorophenyl)-1,4-dihydro-1,8-naphthyridine-3-carboxamide] showed a pEC50 of 7.14.
In turn, `C[C@H](NC(=O)c1cn(-c2c(F)cc(F)cc2F)c2nc(N3CCNC3=O)ccc2c1=O)C(F)(F)F` [Example 341, 4-Oxo-7-(2-oxoimidazolidin-1-yl)-1-(2,4,6-trifluorophenyl)-N-[(2S)-1,1,1-trifluoropropan-2-yl]-1,4-dihydro-1,8-naphthyridine-3-carboxamide] had a pEC50 under setting [1] of 7.25.
`O=C(NC(c1ccc(F)cc1)C(F)(F)F)c1cn(-c2ccc(F)cc2F)c2nc(N3C[C@@H](O)CC3=O)ccc2c1=O` (mixture of isomers) [Example 273, 1-(2,4-Difluorophenyl)-7-[(4S)-4-hydroxy-2-oxopyrrolidin-1-yl]-4-oxo-N-[2,2,2-trifluoro-1-(4-fluorophenyl)ethyl]-1,4-dihydro-1,8-naphthyridine-3-carboxamide]: the pEC50 under setting [1] is 7.36.
In turn, `Cc1ccccc1C(NC(=O)c1cn(-c2ccc(F)cc2F)c2nc(N(C)C)ccc2c1=O)C(F)(F)F` (racemic) [Example 142, rac-1-(2,4-Difluorophenyl)-7-(dimethylamino)-4-oxo-N-[2,2,2-trifluoro-1-(2-methylphenyl)ethyl]-1,4-dihydro-1,8-naphthyridine-3-carboxamide] had a pEC50 under setting [1] of 6.96.
